Patent US10045962B2 (priority 2014, dated 2018)
Counter-ions that a name gives are not always drawn.

Key:
[1] = tested on: H1650 (lung adenocarcinoma); conditions: 10 μM, 72 hours
Procedure: (§1) These cells were seeded at an amount of 2×10^6 cells, and then added with the culture medium for cultivating the cells to a volume of 10 mL, followed by cultivation for 2 to 3 days. After counting the cell number, these cells were respectively plated in a 96-well plate, in which each well has a fixed cell number of 3000 and a volume of 100 μL.
(§2) After removing the culture medium in the 96-well plate, each well was added with 100 μL of 10 μM commercial drug and then placed for 72 hours. Thereafter, each well was further added with 100 μL of a diluted WST-1 solution (the dilution ratio for the culture medium: WST-1 stock solution (wt/wt) is 9:1).

[2] = tested on: LNCap; conditions: 10 μM, 72 hours, single experiments not given
[3] = tested on: C-33A (cervical carcinoma); conditions: 10 μM, 72 hours
Procedure: as §1, §2

[4] = tested on: Colorectal cancer; conditions: summary over cell lines, 10 μM, 72 hours
Procedure: as §1, §2

[5] = tested on: A549 (lung adenocarcinoma); conditions: 10 μM, 72 hours
Procedure: as §1, §2

[6] = tested on: Ovarian cancer; conditions: summary over cell lines, 10 μM, 72 hours
Procedure: as §1, §2

[7] = tested on: AGS (gastric adenocarcinoma); conditions: 10 μM, 72 hours
Procedure: as §1, §2
(§3) Each cancer cell inhibitory experiment was repeated for 4 times, followed by calculation of the mean values thereof, which were shown in the following tables.

[8] = tested on: HEK 293 (kidney); conditions: 10 μM, 72 hours
Procedure: as §1, §2
Each cell inhibitory experiment was repeated for 4 times, followed by calculation of the mean values thereof, which were shown in the following tables.

[9] = tested on: Bladder cancer; conditions: summary over cell lines, 10 μM, 72 hours
Procedure: as §1, §2

[10] = tested on: Liver cancer; conditions: summary over cell lines, 10 μM, 72 hours
Procedure: as §1, §2

[11] = tested on: Pancreatic cancer; conditions: summary over cell lines, 10 μM, 72 hours
Procedure: as §1, §2

[12] = tested on: Breast cancer; conditions: summary over cell lines, 10 μM, 72 hours
Procedure: as §1, §2

[13] = tested on: 786-O (renal adenocarcinoma); conditions: 10 μM, 72 hours
Procedure: as §1, §2

[14] = tested on: AsPC-1; conditions: 10 μM, 72 hours
Procedure: as §1, §2, §3

[15] = tested on: PC-3 (prostate adenocarcinoma); conditions: 10 μM, 72 hours
Procedure: as §1, §2, §3

[16] = tested on: T24; conditions: 10 μM, 72 hours
Procedure: as §1, §2, §3

[17] = tested on: LoVo (colorectal adenocarcinoma); conditions: 10 μM, 72 hours
Procedure: as §1, §2, §3

[18] = tested on: HCT116-wt (colorectal carcinoma); conditions: 10 μM, 72 hours
Procedure: as §1, §2, §3

[19] = tested on: A375 (amelanotic melanoma); conditions: 10 μM, 72 hours
Procedure: as §1, §2

[20] = tested on: HeLa (cervix adenocarcinoma); conditions: 10 μM, 72 hours
Procedure: as §1, §2

[21] = tested on: BxPC-3; conditions: 10 μM, 72 hours
Procedure: as §1, §2, §3

[22] = tested on: HepG2 (hepatocellular carcinoma); conditions: 10 μM, 72 hours
Procedure: as §1, §2, §3

[23] = tested on: Gastric cancer; conditions: summary over cell lines, 10 μM, 72 hours
Procedure: as §1, §2

[24] = tested on: U2OS; conditions: 10 μM, 72 hours
Procedure: as §1, §2

[25] = tested on: MKN-45 (gastric adenocarcinoma); conditions: 10 μM, 72 hours
Procedure: as §1, §2, §3

[26] = tested on: TOV-21G; conditions: 10 μM, 72 hours
Procedure: as §1, §2

[27] = tested on: SAS (tongue squamouscell carcinoma); conditions: 10 μM, 72 hours
Procedure: as §1, §2, §3

[28] = tested on: Hep3B (hepatocellular carcinoma); conditions: 10 μM, 72 hours
Procedure: as §1, §2, §3

**Q.** Which results are given for `CNCC[C@H](Oc1cccc2ccccc12)c1cccs1` [duloxetine HCl, Duloxetine hydrochloride]?
**A.** Mean (survival rate) ([1]; mean of 4 experiments): 36.3%; survival rate 1-10 min ([1]; single experiment): 35.2%; survival rate 2-20 min ([1]; single experiment): 36.9%; survival rate 3-20 min ([1]; single experiment): 33.6%; survival rate 4-20 min ([1]; single experiment): 39.4%; Mean (survival rate) [2]: 72.8%; Mean survival rate (%) ([3]; mean of 4 experiments): 40.7%; survival rate 0524-10 min ([3]; single experiment): 34.3%; survival rate 0526-10 min ([3]; single experiment): 52.4%; survival rate 0529-10 min ([3]; single experiment): 33.7%; survival rate 0531-10 min ([3]; single experiment): 42.4%; Survival rate (%) [4]: 62.21%; Mean survival rate (%) ([5]; mean of 4 experiments): 37.5%; survival rate 0524-10 min ([5]; single experiment): 32.8%; survival rate 0526-10 min ([5]; single experiment): 53.7%; survival rate 0529-10 min ([5]; single experiment): 33.2%; survival rate 0531-10 min ([5]; single experiment): 30.1%; Survival rate (%) [6]: 51.5%; Mean survival rate (%) ([7]; mean of 4 experiments): 23.5%; survival rate 0510-10 min ([7]; single experiment): 25.0%; survival rate 0512-10 min ([7]; single experiment): 15.9%; survival rate 0515-10 min ([7]; single experiment): 37.3%; survival rate 0517-10 min ([7]; single experiment): 15.8%; Mean survival rate (%) ([8]; HEK 293 normal kidney cells, mean, single experiments not given): 62.4%; Survival rate (%) ([8]; Kidney (HEK293 normal cells), summary table): 62.44%; Survival rate (%) [9]: 67.2%; Survival rate (%) [10]: 40.95%; Survival rate (%) [11]: 57.2%; Survival rate (%) [12]: 48.57%; Mean survival rate (%) ([13]; 786-O, mean of 4 experiments): 67.3%; survival rate 0524-10 min ([13]; 786-O, single experiment): 60.4%; survival rate 0526-10 min ([13]; 786-O, single experiment): 89.7%; survival rate 0529-10 min ([13]; 786-O, single experiment): 49.0%; survival rate 0531-10 min ([13]; 786-O, single experiment): 70.1%; Survival rate (%) ([13]; Renal cancer (786-O), summary table): 67.3%; Mean survival rate (%) ([14]; mean of 4 experiments): 60.3%; survival rate 1-4-30 min ([14]; single experiment): 61.7%; survival rate 1-7-3-30 min ([14]; single experiment): 75.7%; survival rate 1-7-4-30 min ([14]; single experiment): 78.0%; survival rate 1-7-7-30 min ([14]; single experiment): 26.0%; Mean survival rate (%) ([15]; mean of 4 experiments): 45.6%; survival rate PC-3-0524-10 min ([15]; single experiment): 45.0%; survival rate PC-3-0526-10 min ([15]; single experiment): 70.9%; survival rate PC-3-0529-10 min ([15]; single experiment): 41.4%; survival rate PC-3-0531-10 min ([15]; single experiment): 25.1%; Mean (survival rate) ([16]; mean of 4 experiments): 85.2%; survival rate T24-1-30 min ([16]; single experiment): 81.7%; survival rate T24-2-20 min ([16]; single experiment): 90.6%; survival rate T24-3-20 min ([16]; single experiment): 71.4%; survival rate T24-4-20 min ([16]; single experiment): 97.2%; Mean survival rate (%) ([17]; mean of 4 experiments): 47.3%; survival rate 0616-10 min ([17]; single experiment): 44.8%; survival rate 0619-10 min ([17]; single experiment): 63.4%; survival rate 0621-10 min ([17]; single experiment): 49.9%; survival rate 0623-10 min ([17]; single experiment): 31.0%; Mean survival rate (%) ([18]; mean of 4 experiments): 77.1%; survival rate 0602-30 min ([18]; single experiment): 52.1%; survival rate 0605-10 min ([18]; single experiment): 108.8%; survival rate 0607-10 min ([18]; single experiment): 127.4%; survival rate 0609-10 min ([18]; single experiment): 20.3%; Mean survival rate (%) ([19]; mean of 4 experiments): 31.5%; survival rate 0602-30 min ([19]; single experiment): 25.7%; survival rate 0605-10 min ([19]; single experiment): 16.2%; survival rate 0607-10 min ([19]; single experiment): 17.1%; survival rate 0609-10 min ([19]; single experiment): 67.0%; Mean survival rate (%) ([20]; mean of 4 experiments): 33.8%; survival rate 0524-10 min ([20]; single experiment): 27.7%; survival rate 0526-10 min ([20]; single experiment): 29.9%; survival rate 0529-10 min ([20]; single experiment): 25.4%; survival rate 0531-10 min ([20]; single experiment): 52.1%; Mean survival rate (%) ([21]; mean of 4 experiments): 54.0%; survival rate 3-4-30 min ([21]; single experiment): 72.4%; survival rate 3-7-3-30 min ([21]; single experiment): 62.1%; survival rate 3-7-4-30 min ([21]; single experiment): 58.8%; survival rate 3-7-7-30 min ([21]; single experiment): 22.7%; Mean survival rate (%) ([22]; mean of 4 experiments): 34.0%; survival rate 0524-20 min ([22]; single experiment): 14.8%; survival rate 0526-20 min ([22]; single experiment): 44.7%; survival rate 0529-20 min ([22]; single experiment): 37.7%; survival rate 0531-20 min ([22]; single experiment): 38.9%; Survival rate (%) [23]: 41.6%; Survival rate (%) ([24]; Osteosarcoma (U2OS), summary table): 35.09%; Mean survival rate (%) ([24]; U2OS, mean of 4 experiments): 35.1%; survival rate 6-26-10 min ([24]; U2OS, single experiment): 26.6%; survival rate 6-28-10 min ([24]; U2OS, single experiment): 21.5%; survival rate 6-30-10 min ([24]; U2OS, single experiment): 56.6%; survival rate 7-3-10 min ([24]; U2OS, single experiment): 35.6%; Mean (survival rate) ([25]; mean of 4 experiments): 59.7%; survival rate 0510-10 min ([25]; single experiment): 59.5%; survival rate 0512-10 min ([25]; single experiment): 75.3%; survival rate 0515-10 min ([25]; single experiment): 46.0%; survival rate 0517-10 min ([25]; single experiment): 57.9%; Mean (survival rate) ([26]; mean of 4 experiments): 34.9%; survival rate 7-3-30 min ([26]; single experiment): 30.9%; survival rate 7-4-30 min ([26]; single experiment): 41.9%; survival rate 7-7-30 min ([26]; single experiment): 34.7%; survival rate -4-30 min ([26]; single experiment): 31.9%; Survival rate (%) ([27]; Lingual cancer (SAS), summary table): 82.44%; Mean survival rate (%) ([27]; SAS, mean of 4 experiments): 82.4%; survival rate 6-26-10 min ([27]; SAS, single experiment): 45.7%; survival rate 6-28-10 min ([27]; SAS, single experiment): 88.9%; survival rate 6-30-10 min ([27]; SAS, single experiment): 96.2%; survival rate 7-3-10 min ([27]; SAS, single experiment): 98.9%; Mean (survival rate) ([28]; mean of 4 experiments): 47.9%; survival rate 0612-20 min ([28]; single experiment): 41.4%; survival rate 0614-20 min ([28]; single experiment): 53.3%; survival rate 0616-20 min ([28]; single experiment): 36.2%; survival rate 0619-20 min ([28]; single experiment): 60.6%
